Assay results: paper PMC6825215, “An anionic, endosome-escaping polymer to potentiate intracellular delivery of cationic peptides, biomacromolecules, and nanoparticles” (Nature Communications, 2019)
Where two headings read alike, the source gives them in different places. Where no end group is shown, it is not given here.

Assays:
HCAVSMCs = test: Inhibitor uptake studies; format: cell-based, human; details: for inhibition at 100 µM / inhibition at 0.1 µM: Homo sapiens; for effect of inhibitor during PPAA pretreatment only on subsequent YARA-MK2i peptide uptake: no inhibitor present during peptide treatment
[1] = test system: Luciferase expressing A7r5 cells; test: Luciferase gene-silencing assay; format: cell-based, rat; details: sequentially delivered 25 nM siRNA as peptide-siRNA polyplexes
Method: Luciferase expressing A7r5 cells were seeded in a black, clear bottom 96-well plate at a density of 10,000 cells/well in DMEM containing 10% FBS and 1% P/S and allowed to adhere overnight. D-DPB NPs, PepFect-siRNA polyplexes, and CADY-siRNA polyplexes were formulated and loaded with luciferase or scrambled siRNA as noted above. […] Luciferase gene silencing was calculated compared with cells treated with an equivalent dose of scrambled siRNA loaded into D-DPB NPs as a control.

HMVECs = test: Vivo-morpholino colocalization with LysoTracker Red; format: cell-based, human; details: delivery with either 2.5 or 5 µM PPAA, 5 µM vivo-morpholino
Method: HMVECs were seeded into Lab-Tek II 8-well chambered coverslips at a density of 10,000 cells/well and incubated overnight. […] Lysotracker staining, imaging of cells, and image processing was carried out as noted above in the peptide endosomal escape experiment.

[2] = test system: human coronary artery vascular smooth muscle cells (HCAVSMCs); test: Flow cytometric uptake and retention of fluorescently labeled peptide; details: 5 µM Alexa-488 labeled peptide, mass ratios 3:1 to 1:20 peptide:polymer, 30 min, flow cytometry
Method: (§1) Cells were treated as defined in the following sections in Opti-MEM medium supplemented with 1% penicillin-streptomycin and 1% FBS. For all flow cytometry assays, following treatment or post-treatment incubation, cells were washed 2× in PBS without calcium or magnesium, harvested with 0.05% trypsin-EDTA, centrifuged, resuspended in 300 µL of 0.05% Trypan blue in PBS without calcium or magnesium, and transferred to a 96-well plate for analysis on an EMD Millipore Guava easyCyte™ 5HT flow cytometer with InCyte software for data acquisition. […] All samples were run in triplicate. All flow cytometric uptake data are presented as fold increase in peptide, vivo-morpholino, or nanoparticle uptake relative to treatment with an equivalent dose of the corresponding fluorescently labeled peptide, vivo-morpholino, or nanoparticle formulation alone. Absolute fluorescence data of peptide uptake is shown in the supplement (Supplementary Figs. 4 and 7).
(§2) Cells were then treated with each formulation for 30 min.
Cell culture medium containing the polymer treatment was then aspirated, and cells were subsequently treated with fluorescent peptide or vivo-morpholino alone for 30 min.
HCAVSMCs were seeded and treated for 30 min as noted above.

HEK 293-T LgBiT cells = test: NanoLuc luciferase intracellular bioavailability assay; format: cell-based, human; details: sequential delivery of 5 µM PPAA followed by 0.5 or 1 µM YARA-HiBiT, 30 min each; 6 h incubation
Method: HEK 293-T LgBiT cells were seeded into a collagen-coated 96-well plate in DMEM with 10% FBS and 1% P/S and allowed to incubate for 24 h. […] The treatment was then removed and cells were incubated in 10% FBS media for 6 h. Prior to reading, the TECAN Infinite M1000 Pro plate reader was warmed to 37 °C. The cells were treated with 1 μM DrkBiT for 2 min, after which the NanoLuc substrate was added. The plate was immediately read on the plate reader in a kinetic luminescence cycle for 20 min. Peak luminescence data points were calculated by taking the average of the five readings at the peak of the kinetic curve.

[3] = test system: HCAVSMCs, HMVECs, RAW 264.7, MCF7, and HEK 293T cells; test: Polymer dose-dependent YARA-MK2i uptake in five cell types; details: co-delivery with 2–5 µM PPAA; all five cell lines; flow cytometry
Method: as §1, §2

[4] = read-out: inhibition of YARA-MK2i peptide uptake, co-delivery with 5 µM PPAA, inhibitor (100 nM wortmannin, 100 µM dynasore) 30 min pretreatment and throughout treatment
[5] = read-out: inhibition of YARA-MK2i peptide uptake, sequential delivery, 5 µM PPAA then peptide, inhibitor (100 nM wortmannin, 100 µM dynasore) 30 min pretreatment and throughout treatment

Compound: O=C(N/N=C/c1ccc(O)c(O)c1)c1cc2ccccc2cc1O [dynasore, Dynasore]
- effect on uptake of fluorescent PPAA polymer (without peptide) (HCAVSMCs; 0-200 µM dynasore, 30 min pretreatment, rhodamine labeled PPAA): dose-dependently inhibited internalization
- inhibition at 100 µM (HCAVSMCs; [4]): ~30%
- inhibition at 100 µM (HCAVSMCs; [5]): ~44%
- effect of inhibitor during PPAA pretreatment only on subsequent YARA-MK2i peptide uptake (HCAVSMCs): dose-dependent increase in subsequent YARA-MK2i peptide internalization

Compound: COC[C@H]1OC(=O)c2coc3c2[C@@]1(C)C1=C(C3=O)[C@@H]2CCC(=O)[C@@]2(C)C[C@H]1OC(C)=O [wortmannin, Wortmannin]
- inhibition at 0.1 µM (HCAVSMCs; [4]): ~69%
- inhibition at 0.1 µM (HCAVSMCs; [5]): ~89%
- effect of inhibitor during PPAA pretreatment only on subsequent YARA-MK2i peptide uptake (HCAVSMCs): significantly reduced subsequent peptide uptake

Compound: Ac-GLWRALWRLLRSLWRLLWRA-cya (Ac-GLWRALWRLLRSLWRLLWRA-cysteamide) [CADY, secondary amphipathic CPP, nucleic acid delivery vector]
- effect of PPAA pretreatment on gene-silencing activity of siRNA polyplexes [1]: enhanced the gene-silencing activity

Compound: CD47 vivo-morpholino: phosphorodiamidite morpholino oligomer conjugated to a cationic octa-guanidine dendrimer; 5′-CGTCACAGGCAGGACCCACTGCCCA (all phosphorodiamidate morpholino (PMO); octa-guanidine dendrimer conjugated, position not given here, further chemistry not fully specified)
- colocalization with the endolysosomal dye LysoTracker Red (HMVECs): significantly reduced CD47 vivo-morpholino colocalization

Compound: Dextran sulfate
- effect of inhibitor during PPAA pretreatment only on subsequent YARA-MK2i peptide uptake (HCAVSMCs): Neither methyl-β-cyclodextrin nor dextran sulfate addition during PPAA pretreatment had any effects on subsequent peptide uptake

Compound: GRKKRRQRRRPPQKALARQLGVAA [TAT-MK2i]
- effect of co-delivery with PPAA (pre-complexed NPs) on peptide uptake [2]: consistently increased peptide uptake

Compound: KLRKVSpK [VASP (no CPP)]
- effect of co-delivery with PPAA (pre-complexed NPs) on peptide uptake [2]: no polymer effect on uptake

Compound: Methyl-β-cyclodextrin
- effect of inhibitor during PPAA pretreatment only on subsequent YARA-MK2i peptide uptake (HCAVSMCs): Neither methyl-β-cyclodextrin nor dextran sulfate addition during PPAA pretreatment had any effects on subsequent peptide uptake

Compound: RQIKIWFQNRRMKWKKKALARQLGVAA [Penetratin-MK2i]
- effect of co-delivery with PPAA (pre-complexed NPs) on peptide uptake [2]: did not display significant PPAA-mediated enhancement of uptake with co-delivery

Compound: RRRRRRKALARQLGVAA [R6-MK2i]
- effect of co-delivery with PPAA (pre-complexed NPs) on peptide uptake [2]: consistently increased peptide uptake

Compound: Stearyl-AGYLLGKLLOOLAAAALOOLL [PepFect, stearylated, secondary amphipathic CPP, nucleic acid delivery vector]
- effect of PPAA pretreatment on gene-silencing activity of siRNA polyplexes [1]: enhanced the gene-silencing activity

Compound: YARAAARQARA-HiBiT [YARA-HiBiT, YARA CPP fused to the HiBiT peptide of the NanoLuc platform]
- intracellular delivery (NanoLuc luminescence) (HEK 293-T LgBiT cells): significantly enhanced intracellular delivery

Compound: YARAAARQARA-KLRKVSpK [YARA-VASP]
- effect of co-delivery with PPAA (pre-complexed NPs) on peptide uptake [2]: Very similar trends in PPAA dose-dependent uptake

Compound: YARAAARQARAKALARQLGVAA [YARA-MK2i]
- fold increase in uptake of the YARA-MK2i peptide [3]: 10–30 fold
